Test results as given in PubChem BioAssay (NCI).
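Protocol summary: plate cells (96-well), add compound at 5 concentrations, incubate 48 h, interpolate endpoints linearly. Here, GI50 denotes the concentration required for 50% inhibition of growth. TGI: total growth inhibition.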

Experiments:
Assay in all cases: NCI anticancer screen, dose series, 48 h
SNB-19 CNS = system: SNB-19 CNS
RPMI-8226 leukemia = system: RPMI-8226 leukemia
LOX IMVI melanoma = system: LOX IMVI melanoma
SK-MEL-2 melanoma = system: SK-MEL-2 melanoma
HOP-62 NSCLC = system: HOP-62 NSCLC
HT29 colon = system: HT29 colon
NCI/ADR-RES ovarian = system: NCI/ADR-RES ovarian
SN12C renal = system: SN12C renal
OVCAR-5 ovarian = system: OVCAR-5 ovarian
OVCAR-3 ovarian = system: OVCAR-3 ovarian
K-562 leukemia = system: K-562 leukemia
UO-31 renal = system: UO-31 renal
RXF 393 renal = system: RXF 393 renal
DU-145 prostate = system: DU-145 prostate
MDA-MB-435 = system: MDA-MB-435
EKVX NSCLC = system: EKVX NSCLC
PC-3 prostate = system: PC-3 prostate
CAKI-1 renal = system: CAKI-1 renal
A549 NSCLC = system: A549 NSCLC
TK-10 renal = system: TK-10 renal
NCI-H522 lung = system: NCI-H522 lung
NCI-H23 lung = system: NCI-H23 lung
KM12 colon = system: KM12 colon
SK-MEL-5 melanoma = system: SK-MEL-5 melanoma
SNB-75 CNS = system: SNB-75 CNS
HL-60(TB) leukemia = system: HL-60(TB) leukemia
NCI-H226 lung = system: NCI-H226 lung
ACHN renal = system: ACHN renal
SW-620 colon = system: SW-620 colon
HOP-92 NSCLC = system: HOP-92 NSCLC
NCI-H460 lung = system: NCI-H460 lung
HCT-116 colon = system: HCT-116 colon
CCRF-CEM leukemia = system: CCRF-CEM leukemia
IGROV1 ovarian = system: IGROV1 ovarian
OVCAR-4 ovarian = system: OVCAR-4 ovarian
UACC-257 melanoma = system: UACC-257 melanoma
SF-295 CNS = system: SF-295 CNS
U251 CNS = system: U251 CNS
MCF7 breast = system: MCF7 breast
M14 melanoma = system: M14 melanoma
SR leukemia = system: SR leukemia
MDA-MB-231 breast = system: MDA-MB-231 breast
786-0 renal = system: 786-0 renal
SF-539 CNS = system: SF-539 CNS
OVCAR-8 ovarian = system: OVCAR-8 ovarian
BT-549 breast = system: BT-549 breast
A498 renal = system: A498 renal
MOLT-4 leukemia = system: MOLT-4 leukemia
HCT-15 colon = system: HCT-15 colon
T-47D breast = system: T-47D breast
SK-OV-3 ovarian = system: SK-OV-3 ovarian
MALME-3M melanoma = system: MALME-3M melanoma
SF-268 CNS = system: SF-268 CNS
HCC-2998 colon = system: HCC-2998 colon
UACC-62 melanoma = system: UACC-62 melanoma
COLO 205 colon = system: COLO 205 colon
HS 578T breast = system: HS 578T breast
SK-MEL-28 melanoma = system: SK-MEL-28 melanoma

SMILES: CCN(CC)CC(O)CNc1c2ccc(Cl)cc2nc2ccc(OC)cc12 (stereo unspecified)
- GI50 (SNB-19 CNS): 632 nM
- TGI (SNB-19 CNS): 2700 nM
- GI50 (RPMI-8226 leukemia): 510 nM
- TGI (RPMI-8226 leukemia): 1870 nM
- GI50 (LOX IMVI melanoma): 589 nM
- TGI (LOX IMVI melanoma): 1790 nM
- GI50 (SK-MEL-2 melanoma): 1270 nM
- TGI (SK-MEL-2 melanoma): 2850 nM
- GI50 (HOP-62 NSCLC): 1010 nM
- TGI (HOP-62 NSCLC): 2730 nM
- GI50 (HT29 colon): 356 nM
- TGI (HT29 colon): 1480 nM
- GI50 (NCI/ADR-RES ovarian): 933 nM
- TGI (NCI/ADR-RES ovarian): 3.31 µM
- GI50 (SN12C renal): 540 nM
- TGI (SN12C renal): 2680 nM
- GI50 (OVCAR-5 ovarian): 1660 nM
- TGI (OVCAR-5 ovarian): 5.18 µM
- GI50 (OVCAR-3 ovarian): 1710 nM
- TGI (OVCAR-3 ovarian): 4.26 µM
- GI50 (K-562 leukemia): 312 nM
- TGI (K-562 leukemia): 979 nM
- GI50 (UO-31 renal): 929 nM
- TGI (UO-31 renal): 3.41 µM
- GI50 (RXF 393 renal): 657 nM
- TGI (RXF 393 renal): 1840 nM
- GI50 (DU-145 prostate): 710 nM
- TGI (DU-145 prostate): 2210 nM
- GI50 (MDA-MB-435): 923 nM
- TGI (MDA-MB-435): 2250 nM
- GI50 (EKVX NSCLC): 407 nM
- TGI (EKVX NSCLC): 2080 nM
- GI50 (PC-3 prostate): 355 nM
- TGI (PC-3 prostate): 1620 nM
- GI50 (CAKI-1 renal): 656 nM
- TGI (CAKI-1 renal): 2330 nM
- GI50 (A549 NSCLC): 472 nM
- TGI (A549 NSCLC): 2030 nM
- GI50 (TK-10 renal): 837 nM
- TGI (TK-10 renal): 3.18 µM
- GI50 (NCI-H522 lung): 518 nM
- TGI (NCI-H522 lung): 1840 nM
- GI50 (NCI-H23 lung): 852 nM
- TGI (NCI-H23 lung): 2530 nM
- GI50 (KM12 colon): 512 nM
- TGI (KM12 colon): 1860 nM
- GI50 (SK-MEL-5 melanoma): 1580 nM
- TGI (SK-MEL-5 melanoma): 2920 nM
- GI50 (SNB-75 CNS): 970 nM
- TGI (SNB-75 CNS): 2380 nM
- GI50 (HL-60(TB) leukemia): 960 nM
- TGI (HL-60(TB) leukemia): 3.32 µM
- GI50 (NCI-H226 lung): 886 nM
- TGI (NCI-H226 lung): 3.01 µM
- GI50 (ACHN renal): 935 nM
- TGI (ACHN renal): 3.79 µM
- GI50 (SW-620 colon): 393 nM
- TGI (SW-620 colon): 1650 nM
- GI50 (HOP-92 NSCLC): 1300 nM
- TGI (HOP-92 NSCLC): 3.84 µM
- GI50 (NCI-H460 lung): 327 nM
- TGI (NCI-H460 lung): 975 nM
- GI50 (HCT-116 colon): 367 nM
- TGI (HCT-116 colon): 1410 nM
- GI50 (CCRF-CEM leukemia): 673 nM
- TGI (CCRF-CEM leukemia): 6.88 µM
- GI50 (IGROV1 ovarian): 716 nM
- TGI (IGROV1 ovarian): 3.12 µM
- GI50 (OVCAR-4 ovarian): 704 nM
- TGI (OVCAR-4 ovarian): 2250 nM
- GI50 (UACC-257 melanoma): 1750 nM
- TGI (UACC-257 melanoma): 3.27 µM
- GI50 (SF-295 CNS): 649 nM
- TGI (SF-295 CNS): 2110 nM
- GI50 (U251 CNS): 574 nM
- TGI (U251 CNS): 2320 nM
- GI50 (MCF7 breast): 621 nM
- TGI (MCF7 breast): 4.4 µM
- GI50 (M14 melanoma): 1350 nM
- TGI (M14 melanoma): 2660 nM
- GI50 (SR leukemia): 338 nM
- TGI (SR leukemia): 1070 nM
- GI50 (MDA-MB-231 breast): 972 nM
- TGI (MDA-MB-231 breast): 3.06 µM
- GI50 (786-0 renal): 549 nM
- TGI (786-0 renal): 2050 nM
- GI50 (SF-539 CNS): 1430 nM
- TGI (SF-539 CNS): 3.05 µM
- GI50 (OVCAR-8 ovarian): 521 nM
- TGI (OVCAR-8 ovarian): 2250 nM
- GI50 (BT-549 breast): 1630 nM
- TGI (BT-549 breast): 3.05 µM
- GI50 (A498 renal): 1430 nM
- TGI (A498 renal): 2890 nM
- GI50 (MOLT-4 leukemia): 369 nM
- TGI (MOLT-4 leukemia): 1580 nM
- GI50 (HCT-15 colon): 679 nM
- TGI (HCT-15 colon): 6.43 µM
- GI50 (T-47D breast): 1180 nM
- TGI (T-47D breast): 2930 nM
- GI50 (SK-OV-3 ovarian): 1020 nM
- TGI (SK-OV-3 ovarian): 3.64 µM
- GI50 (MALME-3M melanoma): 1630 nM
- TGI (MALME-3M melanoma): 3.35 µM
- GI50 (SF-268 CNS): 890 nM
- TGI (SF-268 CNS): 2970 nM
- GI50 (HCC-2998 colon): 549 nM
- TGI (HCC-2998 colon): 1770 nM
- GI50 (UACC-62 melanoma): 1780 nM
- TGI (UACC-62 melanoma): 3.31 µM
- GI50 (COLO 205 colon): 528 nM
- TGI (COLO 205 colon): 1680 nM
- GI50 (HS 578T breast): 1240 nM
- TGI (HS 578T breast): 3.47 µM
- GI50 (SK-MEL-28 melanoma): 1720 nM
- TGI (SK-MEL-28 melanoma): 3.1 µM
